Laboratory results: patent US7880007B2, “Bicyclic substituted phenyl piperidine modulators of muscarinic receptors” (Vertex Pharmaceuticals Incorporated, priority 2004, dated 2011)

Tests used:
Type in all cases: cell-based
M3 muscarinic receptor = target: T1, M3 muscarinic receptor (Homo sapiens, UniProt P20309); assay: Functional mobilization of intracellular calcium (FLIPR), M3-CHO cells; settings: for Emax: 100% efficacy = maximum response obtained with the Carbachol control; for M3 Activity: M3-CHO cells, calcium mobilization (FLIPR)
T1 construct: expressed in transfected cells; host or cells: CHO (M3-CHO)
T1 sequence (P20309 whole entry): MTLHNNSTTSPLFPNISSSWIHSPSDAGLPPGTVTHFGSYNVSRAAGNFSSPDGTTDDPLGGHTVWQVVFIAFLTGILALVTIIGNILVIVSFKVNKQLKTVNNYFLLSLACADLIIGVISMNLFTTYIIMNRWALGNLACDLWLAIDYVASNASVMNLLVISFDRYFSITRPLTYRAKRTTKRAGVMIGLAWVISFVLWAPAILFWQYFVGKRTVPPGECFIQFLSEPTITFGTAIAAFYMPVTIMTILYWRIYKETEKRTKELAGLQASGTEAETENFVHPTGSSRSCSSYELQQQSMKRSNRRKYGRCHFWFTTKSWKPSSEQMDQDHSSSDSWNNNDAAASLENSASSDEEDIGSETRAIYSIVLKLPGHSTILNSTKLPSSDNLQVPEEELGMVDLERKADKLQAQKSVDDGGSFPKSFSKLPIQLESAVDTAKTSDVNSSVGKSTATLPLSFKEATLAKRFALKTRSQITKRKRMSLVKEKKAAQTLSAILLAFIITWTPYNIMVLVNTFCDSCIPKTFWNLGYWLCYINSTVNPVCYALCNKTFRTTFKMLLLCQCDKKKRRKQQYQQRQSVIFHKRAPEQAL
Method in brief: (§1)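 Calcium mobilisation read by FLIPR over 60 s (ex 488/em 540 nm) in recombinant muscarinic CHO lines loaded with calcium dye plus 1 mM probenecid. Compounds tested as agonists alone, or as inhibitors against EC80 carbachol after 15 min pre-incubation or co-addition; 0.5% DMSO; efficacy scaled to carbachol maximal response.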

M4 muscarinic receptor = target: T2, M4 muscarinic receptor (Homo sapiens, UniProt P08173); assay: Functional mobilization of intracellular calcium (FLIPR), M4-CHO cells; settings: for Emax: 100% efficacy = maximum response obtained with the Carbachol control; for M4 Activity: M4-CHO cells, calcium mobilization (FLIPR)
T2 construct: expressed in transfected cells; host or cells: CHO (M4-CHO)
T2 sequence (P08173 1-479): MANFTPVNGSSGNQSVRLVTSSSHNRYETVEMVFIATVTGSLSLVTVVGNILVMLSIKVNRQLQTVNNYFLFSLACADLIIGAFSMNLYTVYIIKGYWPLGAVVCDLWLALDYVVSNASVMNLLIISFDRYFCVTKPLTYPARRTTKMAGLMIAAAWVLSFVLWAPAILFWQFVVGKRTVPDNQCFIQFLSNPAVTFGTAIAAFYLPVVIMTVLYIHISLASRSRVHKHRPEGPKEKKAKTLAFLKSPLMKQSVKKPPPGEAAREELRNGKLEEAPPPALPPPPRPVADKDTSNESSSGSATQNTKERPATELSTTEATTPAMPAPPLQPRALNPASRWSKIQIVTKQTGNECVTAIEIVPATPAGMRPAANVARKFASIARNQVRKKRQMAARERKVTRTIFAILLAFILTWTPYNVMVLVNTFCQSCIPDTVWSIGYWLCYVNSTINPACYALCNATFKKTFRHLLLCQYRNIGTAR
Method in brief: as §1

M1 muscarinic receptor = target: T3, M1 muscarinic receptor (Homo sapiens, UniProt P11229); assay: Functional mobilization of intracellular calcium (FLIPR), M1-CHO cells; settings: for Emax: 100% efficacy = maximum response obtained with the Carbachol control; for M1 Activity: M1-CHO cells, calcium mobilization (FLIPR)
T3 construct: expressed in transfected cells; host or cells: CHO (M1-CHO)
T3 sequence (P11229 1-460): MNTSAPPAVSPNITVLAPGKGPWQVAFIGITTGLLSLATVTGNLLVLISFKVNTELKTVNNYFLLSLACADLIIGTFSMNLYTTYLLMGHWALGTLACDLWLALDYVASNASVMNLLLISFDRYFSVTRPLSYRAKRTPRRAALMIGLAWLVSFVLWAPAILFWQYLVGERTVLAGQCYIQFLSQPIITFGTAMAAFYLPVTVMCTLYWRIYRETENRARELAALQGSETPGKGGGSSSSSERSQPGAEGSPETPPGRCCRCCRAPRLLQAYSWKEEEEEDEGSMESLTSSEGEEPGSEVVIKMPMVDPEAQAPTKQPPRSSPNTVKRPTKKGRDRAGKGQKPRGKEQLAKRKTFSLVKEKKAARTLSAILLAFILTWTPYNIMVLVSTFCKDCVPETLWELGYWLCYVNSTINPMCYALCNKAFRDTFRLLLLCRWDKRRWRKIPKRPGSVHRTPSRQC
Method in brief: as §1

M2 muscarinic receptor = target: T4, M2 muscarinic receptor (Homo sapiens, UniProt P08172); assay: Functional mobilization of intracellular calcium (FLIPR), M2-CHO cells; settings: for Emax: 100% efficacy = maximum response obtained with the Carbachol control; for M2 Activity: M2-CHO cells, calcium mobilization (FLIPR)
T4 construct: expressed in transfected cells; host or cells: CHO (M2-CHO)
T4 sequence (P08172 1-466): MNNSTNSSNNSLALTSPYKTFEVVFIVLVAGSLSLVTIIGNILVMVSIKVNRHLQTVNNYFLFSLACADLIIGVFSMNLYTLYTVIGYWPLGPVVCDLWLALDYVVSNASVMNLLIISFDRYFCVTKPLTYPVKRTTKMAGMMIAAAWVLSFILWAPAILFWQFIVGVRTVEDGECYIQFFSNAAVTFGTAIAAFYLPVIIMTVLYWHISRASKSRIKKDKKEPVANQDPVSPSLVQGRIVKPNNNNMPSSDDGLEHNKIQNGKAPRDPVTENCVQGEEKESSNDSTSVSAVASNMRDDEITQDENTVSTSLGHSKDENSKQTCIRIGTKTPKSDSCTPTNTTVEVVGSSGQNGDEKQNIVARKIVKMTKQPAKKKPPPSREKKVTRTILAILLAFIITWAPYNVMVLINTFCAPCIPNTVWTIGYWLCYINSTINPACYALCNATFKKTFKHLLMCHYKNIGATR
Method in brief: as §1

Structure (SMILES) | Emax (M3 muscarinic receptor) [%] | Emax (M4 muscarinic receptor) [%] | Emax (M1 muscarinic receptor) [%] | Emax (M2 muscarinic receptor) [%] | M3 Activity (M3 muscarinic receptor) | M4 Activity (M4 muscarinic receptor) | M1 Activity (M1 muscarinic receptor) | M2 Activity (M2 muscarinic receptor)
CCOC(=O)N1CCC(CN2CCC(c3cc(-c4ccc(C(C)(C)C#N)cc4)ccc3OC)CC2)CC1 [Compound 272] | < 25 | 25 to 100 | 25 to 100 | < 25 | + (activity was measured to be greater than 5.0 μM) | +++ (activity was measured to be less than 1.0 μM) | +++ (activity was measured to be less than 1.0 μM) | + (activity was measured to be greater than 5.0 μM)
COc1ccc(Cl)cc1C1CCN(C2CCC(=O)CC2)CC1 [Compound 273, 4-(4-(5-chloro-2-methoxyphenyl)piperidin-1-yl)cyclohexanone] | < 25 | 25 to 100 | 25 to 100 | 25 to 100 | + (activity was measured to be greater than 5.0 μM) | +++ (activity was measured to be less than 1.0 μM) | + (activity was measured to be greater than 5.0 μM) | ++ (activity was measured to be from 1.0 μM to 5.0 μM)
Fc1cccc(-c2ccccc2C2CCN([C@H]3C[C@H]4CC[C@H]3C4)CC2)c1 [Compound 274] | < 25 | 25 to 100 | < 25 | < 25 | + (activity was measured to be greater than 5.0 μM) | ++ (activity was measured to be from 1.0 μM to 5.0 μM) | + (activity was measured to be greater than 5.0 μM) | + (activity was measured to be greater than 5.0 μM)
COc1ccc(-c2ccc(S(C)(=O)=O)cc2)cc1C1CCN(C2CCCC2)CC1 [Compound 275] | < 25 | 25 to 100 | 25 to 100 | 25 to 100 | + (activity was measured to be greater than 5.0 μM) | ++ (activity was measured to be from 1.0 μM to 5.0 μM) | + (activity was measured to be greater than 5.0 μM) | + (activity was measured to be greater than 5.0 μM)
Fc1cccc(C2CCN(C3C[C@H]4CC[C@H]3C4)CC2)c1F (stereo partly shown) [Compound 276] | < 25 | 25 to 100 | 25 to 100 | < 25 | + (activity was measured to be greater than 5.0 μM) | ++ (activity was measured to be from 1.0 μM to 5.0 μM) | + (activity was measured to be greater than 5.0 μM) | + (activity was measured to be greater than 5.0 μM)
COc1ccc(-c2cccc(C)c2)cc1C1CCN([C@H]2C[C@H]3CC[C@H]2C3)CC1 [Compound 277] | < 25 | < 25 | < 25 | < 25 | + (activity was measured to be greater than 5.0 μM) | + (activity was measured to be greater than 5.0 μM) | + (activity was measured to be greater than 5.0 μM) | + (activity was measured to be greater than 5.0 μM)
COc1ccc(Cl)cc1C1CCN(CC2CC3CCC2CC3)CC1 (stereo not shown) [Compound 280] | < 25 | 25 to 100 | < 25 | < 25 | + (activity was measured to be greater than 5.0 μM) | ++ (activity was measured to be from 1.0 μM to 5.0 μM) | + (activity was measured to be greater than 5.0 μM) | + (activity was measured to be greater than 5.0 μM)
Cc1ccccc1C1CCN(C2CCOCC2)CC1 [Compound 281] | < 25 | 25 to 100 | 25 to 100 | < 25 | + (activity was measured to be greater than 5.0 μM) | +++ (activity was measured to be less than 1.0 μM) | + (activity was measured to be greater than 5.0 μM) | + (activity was measured to be greater than 5.0 μM)
CCC(=O)c1ccc(OC)c(C2CCN([C@H]3C[C@H]4CC[C@H]3C4)CC2)c1 [Compound 282] | < 25 | 25 to 100 | < 25 | < 25 | + (activity was measured to be greater than 5.0 μM) | ++ (activity was measured to be from 1.0 μM to 5.0 μM) | + (activity was measured to be greater than 5.0 μM) | + (activity was measured to be greater than 5.0 μM)
CCOC(=O)N1CCC(N2C3CCC2CC(c2ccccc2OC)C3)CC1 (stereo not shown) [Compound 289, ethyl 4-(3-(2-methoxyphenyl)-8-azabicyclo-[3.2.1]octan-8-yl)piperidine-1-carboxylate] | < 25 | 25 to 100 | < 25 | < 25 | + (activity was measured to be greater than 5.0 μM) | ++ (activity was measured to be from 1.0 μM to 5.0 μM) | + (activity was measured to be greater than 5.0 μM) | + (activity was measured to be greater than 5.0 μM)

More lines, main results first:

Emax (M3 muscarinic receptor) [%] | Emax (M4 muscarinic receptor) [%] | Emax (M1 muscarinic receptor) [%] | Emax (M2 muscarinic receptor) [%] | Structure (SMILES) | M3 Activity (M3 muscarinic receptor) | M4 Activity (M4 muscarinic receptor) | M1 Activity (M1 muscarinic receptor) | M2 Activity (M2 muscarinic receptor)
< 25 | 25 to 100 | < 25 | < 25 | Cc1cccc(-c2ccccc2C2CCN([C@H]3C[C@H]4CC[C@H]3C4)CC2)c1 [Compound 283] | + (activity was measured to be greater than 5.0 μM) | ++ (activity was measured to be from 1.0 μM to 5.0 μM) | + (activity was measured to be greater than 5.0 μM) | + (activity was measured to be greater than 5.0 μM)
25 to 100 | 25 to 100 | 25 to 100 | < 25 | COc1ccc(-c2ccc3c(c2)OCO3)cc1C1CCN(C2C[C@@H]3CC[C@@H]2C3)CC1 (stereo partly shown) [Compound 284] | + (activity was measured to be greater than 5.0 μM) | + (activity was measured to be greater than 5.0 μM) | + (activity was measured to be greater than 5.0 μM) | + (activity was measured to be greater than 5.0 μM)
< 25 | < 25 | < 25 | < 25 | CNC(=O)c1ccc(-c2ccc(OC)c(C3CCN(C4CCOCC4)CC3)c2)cc1 [Compound 285] | + (activity was measured to be greater than 5.0 μM) | + (activity was measured to be greater than 5.0 μM) | + (activity was measured to be greater than 5.0 μM) | + (activity was measured to be greater than 5.0 μM)
< 25 | 25 to 100 | < 25 | < 25 | COc1ccc(C#CC2(O)CCCC2)cc1C1CCN([C@H]2C[C@H]3CC[C@H]2C3)CC1 [Compound 287] | + (activity was measured to be greater than 5.0 μM) | +++ (activity was measured to be less than 1.0 μM) | + (activity was measured to be greater than 5.0 μM) | + (activity was measured to be greater than 5.0 μM)
